EC50 data for 23 molecules are collected here from patent publication US20230295087A1, “AGONISTS OF ROR GAMMAt” (BRISTOL-MYERS SQUIBB COMPANY, priority 2019, published 2023).

This assay deals with T1, human RORgT (Homo sapiens, UniProt P51449).
T1 construct: expressed in transfected cells
T1 sequence (P51449 267-516): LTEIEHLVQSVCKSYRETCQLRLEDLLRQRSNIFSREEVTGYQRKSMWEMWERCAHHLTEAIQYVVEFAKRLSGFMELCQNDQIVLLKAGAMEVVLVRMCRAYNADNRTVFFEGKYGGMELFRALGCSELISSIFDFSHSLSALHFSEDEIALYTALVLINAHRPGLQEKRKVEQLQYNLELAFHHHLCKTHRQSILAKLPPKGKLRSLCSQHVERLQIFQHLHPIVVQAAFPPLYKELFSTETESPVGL
Briefly: RORgT Gal4 Luciferase Reporter Gene Assay. It counts as cell-based. The conditions noted are these: engineered Jurkat cells overexpressing RORgT (LBD or full length) fused with Gal4 Luc reporter; 18 hours at 37° C.; luminescence. In a few lines:
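Jurkat cells expressing Gal4 Luc with either RORgT LBD (aa267-516) or full-length human RORgT, 10,000 cells/well, treated with compound (40 µM to 0.67 nM final, 3-fold dilutions) for 18 h at 37° C. Steady-Glo luminescence read; inhibition of constitutive activity as % signal-window reduction relative to a control compound.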
For orientation: Reporter assays use an easily measured gene product as a stand-in for the process of interest.

A word on the EC50: it is the concentration needed to bring the measured effect to its halfway point. In the case of `O=C(C1CCS(=O)(=O)CC1)N1CC[C@@]2(S(=O)(=O)c3ccc(F)cc3)c3ccc(Sc4c(Cl)cccc4Cl)cc3CC[C@@H]12` [Example 118, 4-[(3aR,9bR)-7-[(2,6-dichlorophenyl)sulfanyl]-9b-(4-fluorobenzenesulfonyl)-1H,2H,3H,3aH,4H,5H,9bH-benzo[e]indole-3-carbonyl]-1λ^6-thiane-1,1-dione], the EC50 worked out at 1.3 nM.
Take `O=C(O)[C@H]1CC[C@H](C(=O)N2CC[C@@]3(S(=O)(=O)c4ccc(F)cc4)c4ccc(Sc5c(Cl)cccc5Cl)cc4CC[C@@H]23)CC1` [Example 119, (1r,4r)-4-[(3aR,9bR)-7-[(2,6-dichlorophenyl)sulfanyl]-9b-(4-fluorobenzenesulfonyl)-1H,2H,3H,3aH,4H,5H,9bH-benzo[e]indole-3-carbonyl]cyclohexane-1-carboxylic acid]: a half-maximal effect (EC50) was put at 1.4 nM.
In the case of `O=C(O)[C@H]1CC[C@H](C(=O)N2CC[C@@]3(S(=O)(=O)c4ccc(F)cc4)c4ccc(OCc5ccccc5)cc4CC[C@@H]23)CC1` [Example 120, (1r,4r)-4-[(3aR,9bR)-7-(benzyloxy)-9b-(4-fluorobenzenesulfonyl)-1H,2H,3H,3aH,4H,5H,9bH-benzo[e]indole-3-carbonyl]cyclohexane-1-carboxylic acid], a half-maximal effect (EC50) was put at 18 nM.
For `O=C(O)[C@H]1CC[C@H](C(=O)N2CC[C@@]3(S(=O)(=O)c4ccc(F)cc4)c4ccc(OCc5c(Cl)cccc5Cl)cc4CC[C@@H]23)CC1` [Example 121, (1r,4r)-4-[(3aR,9bR)-7-[(2,6-dichlorophenyl)methoxy]-9b-(4-fluorobenzenesulfonyl)-1H,2H,3H,3aH,4H,5H,9bH-benzo[e]indole-3-carbonyl]cyclohexane-1-carboxylic acid], the EC50 turned out to be 9.7 nM.
With `NS(=O)(=O)CC(=O)N1CC[C@@]2(S(=O)(=O)c3ccc(F)cc3)c3ccc(OCc4c(Cl)cccc4Cl)cc3CC[C@@H]12` [Example 122, 2-[(3aR,9bR)-7-[(2,6-dichlorophenyl)methoxy]-9b-(4-fluorobenzenesulfonyl)-1H,2H,3H,3aH,4H,5H,9bH-benzo[e]indol-3-yl]-2-oxoethane-1-sulfonamide], the response was half-maximal at 127 nM (EC50).
`O=C(C1CCS(=O)(=O)CC1)N1CC[C@@]2(S(=O)(=O)c3ccccc3)c3ccc(OCc4c(F)cccc4Cl)cc3CC[C@@H]12` [Example 123, 4-[(3aR,9bR)-9b-(benzenesulfonyl)-7-[(2-chloro-6-fluorophenyl)methoxy]-1H,2H,3H,3aH,4H,5H,9bH-benzo[e]indole-3-carbonyl]-1λ^6-thiane-1,1-dione] gave an EC50 of 7.1 nM.
In turn, `Cc1ccccc1COc1ccc2c(c1)CC[C@H]1N(C(=O)C3CCS(=O)(=O)CC3)CC[C@@]21S(=O)(=O)c1ccccc1` [Example 124, 4-[(3aR,9bR)-9b-(benzenesulfonyl)-7-[(2-methylphenyl)methoxy]-1H,2H,3H,3aH,4H,5H,9bH-benzo[e]indole-3-carbonyl]-1λ^6-thiane-1,1-dione] registered an EC50 of 34 nM.
Consider `O=C(C1CCS(=O)(=O)CC1)N1CC[C@@]2(S(=O)(=O)c3ccccc3)c3ccc(OCC4CCCCC4)cc3CC[C@@H]12` [Example 125, 4-[(3aR,9bR)-9b-(benzenesulfonyl)-7-(cyclohexylmethoxy)-1H,2H,3H,3aH,4H,5H,9bH-benzo[e]indole-3-carbonyl]-1λ^6-thiane-1,1-dione], for which the EC50 was 24 nM.
Regarding `O=C(C1CCS(=O)(=O)CC1)N1CC[C@@]2(S(=O)(=O)c3ccccc3)c3ccc(OCc4c(Cl)cccc4Cl)cc3CC[C@@H]12` [Example 126, 4-[(3aR,9bR)-9b-(benzenesulfonyl)-7-[(2,6-dichlorophenyl)methoxy]-1H,2H,3H,3aH,4H,5H,9bH-benzo[e]indole-3-carbonyl]-1λ^6-thiane-1,1-dione], the EC50 came out at 8.5 nM.
As to `O=C(C1CCS(=O)(=O)CC1)N1CC[C@@]2(S(=O)(=O)c3ccccc3)c3ccc(OCc4ccccc4Cl)cc3CC[C@@H]12` [Example 127, 4-[(3aR,9bR)-9b-(benzenesulfonyl)-7-[(2-chlorophenyl)methoxy]-1H,2H,3H,3aH,4H,5H,9bH-benzo[e]indole-3-carbonyl]-1λ^6-thiane-1,1-dione], a half-maximal response (EC50) required 12 nM.
In turn, `O=C(C1CCS(=O)(=O)CC1)N1CC[C@@]2(S(=O)(=O)c3ccc(F)cc3)c3ccc(OCc4c(Cl)cccc4Cl)cc3CC[C@@H]12` [Example 128, 4-[(3aR,9bR)-7-[(2,6-dichlorophenyl)methoxy]-9b-(4-fluorobenzenesulfonyl)-1H,2H,3H,3aH,4H,5H,9bH-benzo[e]indole-3-carbonyl]-1λ^6-thiane-1,1-dione] came in with an EC50 of 13 nM.
As to `O=C(C1CCS(=O)(=O)CC1)N1CC[C@@]2(S(=O)(=O)c3ccccc3)c3ccc(OCc4cc(Cl)ccc4Cl)cc3CC[C@@H]12` [Example 129, 4-[(3aR,9bR)-9b-(benzenesulfonyl)-7-[(2,5-dichlorophenyl)methoxy]-1H,2H,3H,3aH,4H,5H,9bH-benzo[e]indole-3-carbonyl]-1λ^6-thiane-1,1-dione], a half-maximal effect (EC50) was put at 17 nM.
`O=C(C1CCS(=O)(=O)CC1)N1CC[C@@]2(S(=O)(=O)c3ccccc3)c3ccc(OCc4cc(F)ccc4Cl)cc3CC[C@@H]12` [Example 130, 4-[(3aR,9bR)-9b-(benzenesulfonyl)-7-[(2-chloro-5-fluorophenyl)methoxy]-1H,2H,3H,3aH,4H,5H,9bH-benzo[e]indole-3-carbonyl]-1λ^6-thiane-1,1-dione] registered an EC50 of 12 nM.
Molecule `O=C(C1CCS(=O)(=O)CC1)N1CC[C@@]2(S(=O)(=O)c3ccccc3)c3ccc(OCc4c(F)ccc(F)c4Cl)cc3CC[C@@H]12` [Example 131, 4-[(3aR,9bR)-9b-(benzenesulfonyl)-7-[(2-chloro-3,6-difluorophenyl)methoxy]-1H,2H,3H,3aH,4H,5H,9bH-benzo[e]indole-3-carbonyl]-1λ^6-thiane-1,1-dione] registered a 50% effective concentration (EC50) of 8.6 nM.
In the case of `O=C(C1CCS(=O)(=O)CC1)N1CC[C@@]2(S(=O)(=O)c3ccccc3)c3ccc(OCc4c(F)cccc4C(F)(F)F)cc3CC[C@@H]12` [Example 132, 4-[(3aR,9bR)-9b-(benzenesulfonyl)-7-{[2-fluoro-6-(trifluoromethyl)phenyl]methoxy}-1H,2H,3H,3aH,4H,5H,9bH-benzo[e]indole-3-carbonyl]-1λ^6-thiane-1,1-dione] it was 9.5 nM; in that of `O=C(C1CCS(=O)(=O)CC1)N1CC[C@@]2(S(=O)(=O)c3ccccc3)c3ccc(OCc4c(F)cccc4F)cc3CC[C@@H]12` [Example 133, 4-[(3aR,9bR)-9b-(benzenesulfonyl)-7-[(2,6-difluorophenyl)methoxy] -1H,2H,3H,3aH,4H,5H,9bH-benzo[e]indole-3-carbonyl]-1λ^6-thiane-1,1-dione], 17 nM; in that of `O=C(C1CCS(=O)(=O)CC1)N1CC[C@@]2(S(=O)(=O)c3ccccc3)c3ccc(OCc4ccc(F)cc4Cl)cc3CC[C@@H]12` [Example 134, 4-[(3aR,9bR)-9b-(benzenesulfonyl)-7-[(2-chloro-4-fluorophenyl)methoxy]-1H,2H,3H,3aH,4H,5H,9bH-benzo[e]indole-3-carbonyl]-1λ^6-thiane-1,1-dione], 22 nM.
For `O=C(C1CCS(=O)(=O)C1)N1CC[C@@]2(S(=O)(=O)c3ccccc3)c3ccc(OCc4c(F)cccc4Cl)cc3CC[C@@H]12` (stereo partly drawn) [Example 135, 3-[(3aR,9bR)-9b-(benzenesulfonyl)-7-[(2-chloro-6-fluorophenyl)methoxy]-1H,2H,3H,3aH,4H,5H,9bH-benzo[e]indole-3-carbonyl]-1λ^6-thiolane-1,1-dione], the midpoint of the response, the EC50, lay at 9.7 nM.
In the case of `CC(=O)N1CCC(C(=O)N2CC[C@@]3(S(=O)(=O)c4ccccc4)c4ccc(OCc5c(F)cccc5Cl)cc4CC[C@@H]23)CC1` [Example 136, 1-{4-[(3aR,9bR)-9b-(benzenesulfonyl)-7-[(2-chloro-6-fluorophenyl)methoxy]-1H,2H,3H,3aH,4H,5H,9bH-benzo[e]indole-3-carbonyl]piperidin-1-yl}ethan-1-one] it was 16 nM.
Molecule `CS(=O)(=O)N1CCC(C(=O)N2CC[C@@]3(S(=O)(=O)c4ccccc4)c4ccc(OCc5c(F)cccc5Cl)cc4CC[C@@H]23)CC1` [Example 137, 4-[(3aR,9bR)-9b-(benzenesulfonyl)-7-[(2-chloro-6-fluorophenyl)methoxy]-1H,2H,3H,3aH,4H,5H,9bH-benzo[e]indole-3-carbonyl]-1-methanesulfonylpiperidine] gave an EC50 of 8.8 nM.
As for `O=C1CC[C@@H](C(=O)N2CC[C@@]3(S(=O)(=O)c4ccccc4)c4ccc(OCc5c(F)cccc5Cl)cc4CC[C@@H]23)N1` [Example 138, (5S)-5-[(3aR,9bR)-9b-(benzenesulfonyl)-7-[(2-chloro-6-fluorophenyl)methoxy]-1H,2H,3H,3aH,4H,5H,9bH-benzo[e]indole-3-carbonyl]pyrrolidin-2-one], the figure is 8.8 nM; as for `O=C(CN1CCS(=O)(=O)CC1)N1CC[C@@]2(S(=O)(=O)c3ccccc3)c3ccc(OCc4c(F)cccc4Cl)cc3CC[C@@H]12` [Example 139, 4-{2-[(3aR,9bR)-9b-(benzenesulfonyl)-7-[(2-chloro-6-fluorophenyl)methoxy]-1H,2H,3H,3aH,4H,5H,9bH-benzo[e]indol-3-yl]-2-oxoethyl}-1λ^6-thiomorpholine-1,1-dione], 14 nM; as for `O=C1CC(C(=O)N2CC[C@@]3(S(=O)(=O)c4ccccc4)c4ccc(OCc5c(F)cccc5Cl)cc4CC[C@@H]23)CN1` (stereo partly drawn) [Example 140, 4-[(3aR,9bR)-9b-(benzenesulfonyl)-7-[(2-chloro-6-fluorophenyl)methoxy]-1H,2H,3H,3aH,4H,5H,9bH-benzo[e]indole-3-carbonyl]pyrrolidin-2-one], 134 nM.
